{"source": "patent US12303554B2", "about": "“Use of ultrarapid acting insulin” (MannKind Corporation, priority 2008, dated 2025)", "key": {"[1]": {"conditions": "cited from earlier work"}, "[2]": {"experiment": "52-week clinical trial in type 1 diabetes: basal insulin + prandial TI Inhalation Powder vs basal insulin + SC insulin aspart", "type": "in vivo, human", "from_the_text": "A Prospective, Multi-Center, Open-Label, Randomized, Controlled Clinical Trial Comparing the Efficacy and Safety in Subjects with Type 1 Diabetes Receiving SC Basal Insulin and Prandial Inhalation of Insulin-FDKP Versus SC Basal and Prandial Insulin Over a 52-Week Treatment Period and a 4-Week Follow-up\nThis was a prospective, multi-country, multicenter, open label, randomized, controlled clinical trial comparing glycemic control in subjects with type 1 diabetes receiving basal insulin and prandial insulin-FDKP (TI) Inhalation Powder (TI Inhalation Powder group) with subjects receiving basal insulin and SC rapid-acting insulin aspart (comparator group). This study included a 52-week treatment phase and a 4-week follow-up phase. During the 4-week follow-up phase, pulmonary function and select clinical laboratory assessments were scheduled.\nThe study began with enrollment at Week −3. Subjects received a complete battery of safety and eligibility assessments, including HbA1c and fasting plasma glucose (FPG).\nAt Week −1, subjects were randomized to one of the following 2 treatments: • Basal insulin+prandial TI Inhalation Powder • Basal insulin+prandial SC rapid-acting insulin\nAt Week −1, subjects again completed the first three components of the Insulin Treatment Questionnaire (ITQ) for the purpose of assessing test-retest reliability only). After completing the questionnaire, subjects randomized to the TI Inhalation Powder group were trained on the MEDTONE® Inhaler using TECHNOSPHERE®/insulin (insulin-FDKP) inhalation powder; subjects in the comparator group were trained in the use of the NOVOLOG® pens; all subjects were trained in administration of LANTUS®. Additionally, all subjects were trained on a blood glucose monitoring (HBGM) meter provided at the beginning of the trial and diary and received diabetes education. Any training was repeated at Week 0, if needed.\nAt the beginning of the treatment phase, subjects had several titration/dose evaluation visits to adjust insulin therapy. Titration visits occurred once a week for the first 4 weeks. During Weeks 4 through 10, there were three telephone “visits” (at Week 6, Week 8, and Week 10) to titrate dose, if necessary. However, dose titration was allowed throughout the trial.\nAll subjects completed a 7-point blood glucose profile on any 3 days during the week immediately preceding each visit from Week 0 to Week 52. The 7 time points included samples from before breakfast and 2 hours after breakfast, before the mid-day meal and 2 hours after the mid-day meal, before the evening meal and 2 hours after the evening meal and at bedtime (7 time points a day, over 3 days). These blood glucose (BG) values were recorded in the HBGM diary that was collected at clinic visits. The diaries for Weeks 4 through 10 (during dose titration) which were discussed over the telephone were collected at the next office visits.\nA meal challenge test was performed at Week 4 (during dose titration), Week 26, and Week 52. Meal challenge venous blood sampling times were: −30, 0, 30, 60, 90, 105, 120, 180, 240, 300, and 360 minutes. Blood glucose (BG) was also measured using HBGM glucose meters to aid the Investigator in treatment decisions and values were obtained at −30, 0, 60, and 120 minutes during the meal challenge.\nTreatments for glycemic control used in the trial were the following: prandial insulin-FDKP (TI) inhalation powder, prandial insulin aspart, and basal insulin glargine. Subjects assigned to the TI Inhalation Powder group (TI Inhalation Powder in combination with basal insulin therapy) received sc basal insulin glargine (LANTUS®) once daily (at bedtime) and inhaled TI Inhalation Powder 3 to 4 times a day, immediately before main meals or a snack as based upon clinical need. Adjustment of the TI Inhalation Powder dose and frequency of use to greater than 3 times a day was at the discretion of the Investigator. […]"}, "[3]": {"type": "in vivo, human", "conditions": "10 U lispro", "procedure": "Following the completion of the meal challenge, the data was analyzed as per the statistical analysis plan. […] The study was amended (A1) and included 12 subjects (10 were reenrolled from the first meal challenge), and only two treatments, which were 10 U lispro and 60 and 90 U TI. The doses were selected based on the relative bioavailability observed following the first meal challenge (OP), where under an assumption of linear kinetics, 10 U lispro and 60 U TI would result in similar exposure. The 90 U dose group was included to assess the effect of the highest dose group of TI studied in Phase 3 trials. Six of the 12 subjects received 60 U TI and the other 6 subjects received 90 U TI. All 12 subjects received 10 U lispro in a crossover fashion. […] Blood glucose concentrations were measured at regular intervals from arterialized venous blood samples. […] EGP was determined by measurement of 6,6-^2H2 glucose applying the modified calculations for the non-steady state ([…], and D. T. Stein. Calculating glucose fluxes during meal tolerance test: a new computational approach. Am. J. Physiol Endocrinol. Metab 293 (2):[…]-[…], 2007). C-peptide concentrations were measured pre- and post-dose to assess endogenous insulin secretion. In addition, glucagon and free fatty acid concentrations were also determined."}, "[4]": {"type": "in vivo, human", "procedure": "The insulin-FDKP formulation is administered to the subjects by oral inhalation using a MEDTONE® dry powder inhaler (MannKind Corp.). Methods and results below are described in terms of the Original Protocol (OP), which includes the meal challenge in 18 subjects with three treatments (EXUBERA®, lispro and TI) and Amendment 1 (A1), which includes 12 subjects treated with only TI and lispro. […] The subjects were screened and evaluated before, during and after the experiments and their data analyzed as described below. Subjects were selected based on several key inclusion criteria, including, male and female, having ≥18 and ≤70 years of age with clinical diagnosis of type 2 diabetes mellitus for ≥12 months. The subjects selected for the study also had stable anti-diabetic regimen with insulin for the previous 3 months; HbA1c ≤8.5%; Body Mass Index (BMI) between ≤34 kg/m^2 and ≥25 kg/m^2; urine cotinine ≤100 ng/mL; […] Criteria for exclusion from the study also included unstable diabetes control and/or evidence of serious complications of diabetes (e.g., autonomic neuropathy); serum creatinine >1.8 mg/dL in female subjects and >2.0 mg/dL in male subjects. Other clinically important pulmonary disease was confirmed by documented history or pulmonary function testing. Under OP, the study was planned to be a randomized, open label, 3-way cross-over study. […] At this analysis all patients at least had completed the meal challenge visits and only those data have been used. The screening visit(s) (V1) occurred 1 to 21 days before the first treatment visit (V2) with 7 to 21 days elapsing between treatment-visits (V2, V3, and V4) for the meal challenge test. A minimum of 8 weeks elapsed between V4 and the next treatment visit, (V6). An additional safety visit (V5) was scheduled 1-3 days prior to the first of 3 glucose clamp procedures (V6). The glucose clamp procedure occurred at 3 visits, Visits V6, V7, and V8, with 7 to 21 days elapsing between the visits. […] Each treatment visit during the meal challenge had the subjects hospitalized in the clinical unit the night before initiation of treatment. […] Each subject followed the same randomization order for the glucose-clamp procedures as for the meal challenge tests. During the study, periodic blood draws for determination of pharmacokinetic and/or pharmacodynamic parameters, and safety were taken beginning at 12 hours prior to onset of the treatment regimens and meal challenge, and thereafter for a period of 8 hours. […] Meal Challenge Test: BOOST PLUS® (12 fl. oz.) consisting of 67.5 g carbohydrate, 21 g protein, 21 g fat, energy content 540 kcal was used for the meal challenge test. The BOOST PLUS® was enriched with U-^13C-glucose to determine the amount of absorbed glucose. Concurrent enriched continuous infusion of 6,6-^2H2 glucose was used to assess endogenous glucose production EGP. […] Under OP, the dose for insulin lispro was selected based on information obtained from the regulatory label. The dose selected for EXUBERA® was obtained by means of back calculation of the most commonly used dose information presented to the FDA Advisory Committee in the EXUBERA® Briefing Document. […] Blood glucose concentrations were measured at regular intervals from arterialized venous blood samples. The amount of orally absorbed glucose was estimated by determination of U-^13C-glucose. EGP was determined by measurement of 6,6-^2H2 glucose applying the modified calculations for the non-steady state ([…], and D. T. Stein. Calculating glucose fluxes during meal tolerance test: a new computational approach. Am. J. Physiol Endocrinol. Metab 293 (2):[…]-[…], 2007). C-peptide concentrations were measured pre- and post-dose to assess endogenous insulin secretion. In addition, glucagon and free fatty acid concentrations were also determined."}, "[5]": {"conditions": "52 weeks, + basal insulin glargine"}, "[6]": {"conditions": "52 weeks, + basal insulin, baseline 187.6 (SD 85.1) TI, 180.8 (SD 86.9) comparator"}, "[7]": {"conditions": "45 U insulin-FDKP, 4 mg EXUBERA, 12 U lispro, FIG. 6"}}, "note": "Read-outs that look alike come from different tables or passages of the source.", "data": [{"substance": "Regular human insulin: regular human insulin preparations for subcutaneous injection, considered short acting", "values": [{"measurement": "Duration of significant elevation or activity", "setting": "[1]; subcutaneous injection", "result": "10 to 12", "unit": "h"}]}, {"substance": "insulin aspart", "values": [{"measurement": "Percentage of subjects whose HbA1c level decreased to ≤6.5%", "setting": "[2]; [5]", "result": 7.31, "unit": "%"}, {"measurement": "Percentage of subjects whose HbA1c level decreased to ≤7.0%", "setting": "[2]; [5]", "result": 15.98, "unit": "%"}, {"measurement": "Percentage of subjects whose HbA1c level decreased to ≤8.0%", "setting": "[2]; [5]", "result": 56.16, "unit": "%"}, {"measurement": "Mean FPG at the end of the treatment period", "setting": "[2]; [6]", "result": "161.3 (SD 68.2) mg/dL"}, {"measurement": "Mean decrease in fasting plasma glucose (FPG) over the treatment period", "setting": "[2]; [6]", "result": "23.4 (SD 103.1) mg/dL"}, {"measurement": "HbA1c at Week 14", "setting": "[2]; + basal insulin glargine, baseline 8.41 (SD 0.92) TI arm, 8.48 (SD 0.97) insulin aspart arm", "result": "8.07 (SD 1.09) %"}, {"measurement": "Average body weight gain", "setting": "[2]; over the 52-week treatment period, + basal insulin", "result": 1.4, "unit": "kg"}, {"measurement": "Median Tmax", "setting": "[1]; subjects with type 1 diabetes, prescribing information", "result": "40 to 50", "unit": "min"}]}, {"substance": "insulin glulisine: rapid acting insulin analog", "values": [{"measurement": "Range of Tmax", "setting": "[1]; type 1 and type 2 diabetes populations, prescribing information", "result": "40 to 120", "unit": "min"}]}, {"substance": "insulin lispro: rapid acting insulin analog, subcutaneously administered (Eli Lilly & Co.)", "values": [{"measurement": "Time of peak glucose disappearance rate after dosing", "setting": "[3]; 60 U and 90 U insulin-FDKP, FIG. 11", "result": "about 100 minutes"}, {"measurement": "Time of peak inhibition of endogenous glucose production following dosing", "setting": "[3]; 60 U or 90 U insulin-FDKP (two treatments, dose assignment not stated), FIG. 10", "result": "about 100 minutes"}, {"measurement": "Time post-treatment at which (further) glucose infusion was needed to remain above 90 mg/dL", "setting": "[4]; 45 U insulin-FDKP inhaled, 4 mg EXUBERA inhaled, 12 U lispro sc at onset of meal", "result": "~3", "unit": "h"}, {"measurement": "Time of peak inhibition of endogenous glucose production after treatment", "setting": "[4]; 45 U insulin-FDKP, 4 mg EXUBERA, 12 U lispro, FIG. 5", "result": "about 80 minutes"}, {"measurement": "Time of peak glucose disappearance rate after dosing", "setting": "[4]; [7]", "result": "about 120 minutes"}, {"measurement": "Time post dosing at which glucose disappearance rate became substantial / departed from baseline", "setting": "[4]; [7]", "result": "about 30 minutes"}, {"measurement": "Total insulin exposure, greater than following 45 U insulin-FDKP (TI) or 4 mg EXUBERA", "setting": "[4]; human, in vivo", "result": "approximately 40%"}, {"measurement": "Insulin concentration tmax (median)", "setting": "[4]; human, in vivo, 4 mg", "result": 75, "unit": "min"}]}]}
